Measurements from patent US20210283109A1, “HETEROCYCLIC DIAMIDINES” (Friedrich-Alexander-Universität Erlangen-Nürnberg, priority 2016, published 2021).

Tests used:
PU.1 = conditions: cited from earlier work
[1] = system: human diseased dermal fibroblasts; test: Collagen release from fibroblasts after stimulation with TGF-β; format: cell-based; conditions: compared to TGF-β alone
Description: (§1) Dermal fibroblasts from patients with SSc were cultured in the presence of DB1976. […] Moreover, in the presence of DB1976 differentiation of fibroblasts into matrix-producing myofibroblasts is inhibited (FIG. 3C). Bleomycin induced skin fibrosis was induced by local injections of bleomycin in C57Bl/6 mice (10 weeks of age, mixed genders) for four weeks. Subcutaneous injections of 0.9% NaCl served as a control. DB1976 was administered into tail vein every second day in different concentrations (1 mg/kg body weight; 5 mg/kg body weight) after first application of bleomycin. […] Bleomycin-induced pulmonary fibrosis was induced by a single intratracheal application of bleomycin in C57Bl/6 mice (12 weeks of age, males) using a high pressure syringe (Penn-Century, Wyndmoor, Pa., USA). […]
(A) Formazan toxicity assay of fibroblasts incubated with different concentrations of DB1976 as indicated; (B) human diseased dermal fibroblasts untreated or stimulated with either TGF-β alone or TGF-β plus DB1976; collagen protein level and mRNA level of col1a1 relative to control. […] (C) Immune fluorescence microscopy of cultured fibroblasts as indicated; cells are stained with DAPI, alpha smooth muscle actin (αSMA) and stress fibers. Representative image of 5 independent experiments are shown. *p<0.05 determined by Student's t test according pretest for normality (D'Agostino-Pearson normality test). […]

[2] = system: Dermal fibroblasts from patients with SSc; test: Differentiation of fibroblasts into matrix-producing myofibroblasts (αSMA, stress fibers, immune fluorescence microscopy); format: cell-based, human; conditions: in the presence of compound
Description: as §1
(§2) (A) Formazan toxicity assay of fibroblasts incubated with different concentrations of DB1976 as indicated; (B) human diseased dermal fibroblasts untreated or stimulated with either TGF-β alone or TGF-β plus DB1976; collagen protein level and mRNA level of col1a1 relative to control. […] (C) Immune fluorescence microscopy of cultured fibroblasts as indicated; cells are stained with DAPI, alpha smooth muscle actin (αSMA) and stress fibers. Representative image of 5 independent experiments are shown. *p<0.05 determined by Student's t test according pretest for normality (D'Agostino-Pearson normality test).

[3] = system: Bleomycin-induced pulmonary fibrosis in C57Bl/6 mice; test: Bleomycin-induced pulmonary fibrosis model; format: in vivo; conditions: lung; compared to mice that received bleomycin without compound
Description: (§3) Dermal fibroblasts from patients with SSc were cultured in the presence of DB1976. […] Moreover, in the presence of DB1976 differentiation of fibroblasts into matrix-producing myofibroblasts is inhibited (FIG. 3C). Bleomycin induced skin fibrosis was induced by local injections of bleomycin in C57Bl/6 mice (10 weeks of age, mixed genders) for four weeks. Subcutaneous injections of 0.9% NaCl served as a control. DB1976 was administered into tail vein every second day in different concentrations (1 mg/kg body weight; 5 mg/kg body weight) after first application of bleomycin. […] Bleomycin-induced pulmonary fibrosis was induced by a single intratracheal application of bleomycin in C57Bl/6 mice (12 weeks of age, males) using a high pressure syringe (Penn-Century, Wyndmoor, Pa., USA). Instillation of equal volumes of 0.9% NaCl served as a control. […] Carbon tetrachloride CCl4-induced hepatic fibrosis was induced by intraperitoneal (i.p.) injections of CCl4 in […] mice (14 weeks of age, mixed genders) (Palumbo-Zerr et al. Nature Medicine 21, 150-158 (2015)) twice weekly. […] DB1976 was also effective when initiated after fibrosis had already become manifest. In those experiments, mice were pre-challenged with bleomycin for 3 weeks to induce robust skin fibrosis. After 3 weeks, treatment with DB1976 was initiated, while injections with bleomycin were continued. […] Therapeutic application of DB1976 ameliorated skin thickness, collagen content and myofibroblast counts in the skin (FIG. 6A-F).
(§4) FIG. 5: Model of bleomycin induced lung and CCI-4 induced liver fibrosis. (A) Representative images of sirius red staining of lung tissue from control mice (Wild-type (WT) treated with sodium chloride; n=4), bleomycin treated mice (n≥7) and mice treated with bleomycin and DB1976 (n=≥5); (B) quantification of the fibrotic area; (C, D) mRNA expression level of col1a1 and col1a2; (E) hydroxyproline content.

[4] = system: Dermal fibroblasts from patients with SSc; test: Formazan toxicity assay of fibroblasts; format: cell-based, human; conditions: dermal fibroblasts from SSc patients cultured with different concentrations of compound
Description: as §1, §2

mice = test: Tolerability of treatment in mice; format: in vivo
Description: Dermal fibroblasts from patients with SSc were cultured in the presence of DB1976. […] Moreover, in the presence of DB1976 differentiation of fibroblasts into matrix-producing myofibroblasts is inhibited (FIG. 3C). Bleomycin induced skin fibrosis was induced by local injections of bleomycin in C57Bl/6 mice (10 weeks of age, mixed genders) for four weeks. Subcutaneous injections of 0.9% NaCl served as a control. DB1976 was administered into tail vein every second day in different concentrations (1 mg/kg body weight; 5 mg/kg body weight) after first application of bleomycin. […] Bleomycin-induced pulmonary fibrosis was induced by a single intratracheal application of bleomycin in C57Bl/6 mice (12 weeks of age, males) using a high pressure syringe (Penn-Century, Wyndmoor, Pa., USA). Instillation of equal volumes of 0.9% NaCl served as a control. […] Carbon tetrachloride CCl4-induced hepatic fibrosis was induced by intraperitoneal (i.p.) injections of CCl4 in […] mice (14 weeks of age, mixed genders) (Palumbo-Zerr et al. Nature Medicine 21, 150-158 (2015)) twice weekly. […] DB1976 was also effective when initiated after fibrosis had already become manifest. In those experiments, mice were pre-challenged with bleomycin for 3 weeks to induce robust skin fibrosis. After 3 weeks, treatment with DB1976 was initiated, while injections with bleomycin were continued. […]

[5] = system: pre-established bleomycin induced skin fibrosis in mice; test: Regression of pre-established bleomycin induced skin fibrosis; format: in vivo; conditions: 6 weeks of bleomycin, treatment for the last 3 weeks
Description: as §3
FIG. 6: Regression of pre-established bleomycin induced skin fibrosis by treatment with DB1976. Mice were pre-challenged with bleomycin for 3 weeks to induce robust skin fibrosis. After 3 weeks, treatment with DB1976 was initiated, while injections with bleomycin were continued. After a total of 6 weeks of bleomycin and 3 weeks of treatment with DB1976, the extent of fibrosis was assessed. (A) Representative images of trichrome staining of skin tissue from control mice (Wild-type (WT) treated with sodium chloride; n≥4), 3 weeks bleomycin and afterwards 3 weeks sodium chloride treated mice (n≥8), bleomycin treated mice (n≥8) and mice treated with bleomycin and different concentrations of DB1976 (n≥3 each); (B;C) mRNA expression level of col1a1 and col1a2; (D) dermal thickness; (E) quantification of α-smooth muscle actin-positive myofibroblasts; (F) hydroxyproline content.

[6] = system: Bleomycin induced skin fibrosis in C57Bl/6 mice; test: Bleomycin induced skin fibrosis model; format: in vivo; conditions: tail vein every second day, 1 and 5 mg/kg body weight, bleomycin four weeks; concentration dependent
Description: as §3
FIG. 4: Model of bleomycin induced skin fibrosis. (A) Representative images of trichrome staining of skin tissue from control mice (Wild-type (WT) treated with sodium chloride; n≥7), bleomycin treated mice (n=10) and mice treated with bleomycin and different concentrations of DB1976 (n≥8 each); (B;C) mRNA collagen1a1 or collagen1a2 expression; (D) dermal thickness; (E) quantification of α-smooth muscle actin-positive myofibroblasts; (F) hydroxyproline content.

[7] = system: Cancer associated fibroblasts (CAFs); test: Matrix production of cancer associated fibroblasts activated by TGF-β; format: cell-based, human; conditions: cultured with compound for 96 h, compared to CAFs without compound
Description: Cancer associated fibroblasts (CAFs) are associated with cancer cells at all stages of cancer progression, and their structural and functional contributions to this process are well known. This implies that CAFs have a prominent role in the progression, growth and spread of cancers and represent an important target for cancer therapies.
FIG. 7: DB1976 inhibits collagen production of cancer associated fibroblasts (CAFs). (A) Quantification of PU.1-expressing fibroblasts in healthy colon tissue compared to tumor tissue (colorectal carcinoma). Cells are counted per high power field (HPF). (B) collagen production of CAFs assessed by western blot analysis; PU.1, collagen and β-actin expression in response to stimulation w/o TGF-β in the presence and absence of DB1976; representative blots of 6 independent experiments are shown. […] (C) Immune fluorescence microscopy of fibroblasts from healthy tissue (HC) and CAFs cultured w/o DB1976; DAPI and alpha smooth muscle actin (αSMA) are stained. Representative images of 5 independent experiments are shown. *p<0.05; **p<0.01 determined by Mann-Whitney U-test for non-parametric data.

[8] = system: CCl4-induced hepatic fibrosis in mice; test: Carbon tetrachloride CCl4-induced hepatic fibrosis model; format: in vivo; conditions: CCl4 i.p. twice weekly
Description: as §3, §4

apoptosis = test: Apoptosis by staining for cleaved caspase-3 or TUNEL assays

In the case of N=C(N)c1ccc2nc(-c3ccc(-c4nc5ccc(C(=N)N)cc5[nH]4)[se]3)[nH]c2c1 [DB1976], the “inhibition of PU.1-binding to the DNA of PU.1 target genes” value (PU.1) is given as “potent inhibitor”, the “collagen release from fibroblasts” value [1] is given as “strong reduction” and the “differentiation of fibroblasts into matrix-producing myofibroblasts” value [2] is given as “inhibited”. For the same compound, the Ashcroft score [3] was “reduced”, the “collagen expression (hydroxyproline content)” value [3] was “decreased” and the “collagen expression (mRNA)” value [3] was “decreased”. The myofibroblast count [3] was “decreased”, the “volume of fibrotic area” value [3] was “decreased” and the “toxic effects in formazan toxicity assays” value [4] was “did not observe toxic effects”. For the same compound, the “clinical evidence of toxicity” value (mice) was “no clinical evidence of toxicity”, the tolerability of treatment (mice) was “well-tolerated” and the “collagen content in the skin” value [5] was “ameliorated”. For the same compound, the “myofibroblast counts in the skin” value [5] was “ameliorated”, the skin thickness [5] was “ameliorated” and the extent of fibrosis ([5]; compared to controls) was “significantly reduced”. For the same compound, the “collagen release assessed by col1a2 mRNA expression” value [6] was “significantly decreased”, the “collagen release assessed by hydroxyproline content of the skin” value [6] was “significantly decreased” and the myofibroblast differentiation [6] was “significantly decreased”. The skin thickening [6] was “significantly decreased”, the “alpha smooth muscle actin (αSMA)” value [7] was “significant reduction” and the collagen production [7] was “significant reduction”. For the same compound, the stress fiber expression [7] was “significant reduction”, the “fibrotic tissue remodeling of the liver” value [8] was “significant less” and the collagen production ([8]; liver) was “less”. For the same compound, the myofibroblast differentiation ([8]; liver) was “less”, the “apoptosis by TUNEL assays” value (apoptosis) was “did not detect any evidence of apoptosis” and the “apoptosis in staining for cleaved caspase-3” value (apoptosis) was “did not detect any evidence of apoptosis”.
